Earlier results as cited in patent publication US11622958B2, “Bifunctional prodrugs” (GEORG-AUGUST-UNIVERSITÄT GÖTTINGEN STIFTUNG ÖFFENTLICHEN …, priority 2015, dated 2023).

Key:
[1] = not given; remark: listed apart in the source

For `COc1c(O)c2c(c3cc(C(=O)N4CCc5c4c(O)c(OC)c4[nH]c(C(=O)N6CC7CC78C6=CC(=O)c6[nH]cc(C)c68)cc54)[nH]c13)CCN2C(N)=O` (centres unmarked) [CC-1065], the “hepatotoxicity in animal experiments” value is listed as “delayed lethal hepatotoxicity” and the IC50 [1] is listed as 0.02 nM.
